Assay results taken from patent publication US20130189690A1, “SCN5A Splice Variants for Use in Methods Relating to Sudden Cardiac Death and Need for Implanted Cardiac Defibrillators” (The United States Government as represented by the …, priority 2011, published 2013).

Assays:
[1] = tested on: H9c2 cardiomyocytes; assay: Trypan-blue exclusion cell viability assay; format: cell-based
Protocol: To determine appropriate concentrations of these agents in future experiments, rat H9c2 cardiomyocytes were treated with escalating concentrations of AngII and H2O2, and the dose-dependent cell viability was determined. H9c2 cardiomyocytes were tolerant of a wide range of AngII concentrations from 1-500 nM in serum free medium (FIG. 14A). On the other hand, higher doses of H2O2 induced cell death starting at concentrations of 50 μM (FIG. 14B). […] Exposures of 48 h were used to allow sufficient time for transcriptional effects on the Na^+ current.
The rat embryonic cardiomyocyte cell line, H9c2 (ATCC cat #CRL-1446), or acutely isolated neonatal rat heart cardiomyocytes were used. Rat neonatal ventricular cells were isolated from 3-day-old Sprague-Dawley rats (Charles River Laboratories Wilmington, Mass.) using a kit and following the manufacturer's instructions (Worthington Biochemical Corp. Lakewood, N.J.). Cells cultured in Dulbecco's modified Eagle's medium (DMEM; ATCC, Manassas, Va.) with 10% fetal calf serum (ATCC) under standard tissue culture conditions at 37° C. to 70-80% confluence were exposed to AngII (Sigma, St. Louis, Mo.) or H2O2 (Sigma) in serum free culture medium (SFM) for a total of 48 h in triplicate in 24 well plates. Experiments were repeated three times. […]

[2] = tested on: cardiac sodium channel (scn5a) mRNA; assay: scn5a mRNA abundance by quantitative real-time RT-PCR in H9c2 cells; format: cell-based, rat
Source text: (§1) The rat embryonic cardiomyocyte cell line, H9c2 (ATCC cat #CRL-1446), or acutely isolated neonatal rat heart cardiomyocytes were used. Rat neonatal ventricular cells were isolated from 3-day-old Sprague-Dawley rats (Charles River Laboratories Wilmington, Mass.) using a kit and following the manufacturer's instructions (Worthington Biochemical Corp. Lakewood, N.J.). Cells cultured in Dulbecco's modified Eagle's medium (DMEM; ATCC, Manassas, Va.) with 10% fetal calf serum (ATCC) under standard tissue culture conditions at 37° C. to 70-80% confluence were exposed to AngII (Sigma, St. Louis, Mo.) or H2O2 (Sigma) in serum free culture medium (SFM) for a total of 48 h in triplicate in 24 well plates. Experiments were repeated three times. After dissociation with 0.125% trypsin-EDTA, 20 μL of 0.4% Trypan-blue (Sigma, St. Louis, Mo.) was added to each well, and a Trypan-blue exclusion viability assay was performed. The use of rats conforms with the Guide for the Care and Use of Laboratory Animals published by the US National Institutes of Health (NIH Publication No. 85-23, revised 1996).
(§2) To determine the abundance of cardiac sodium channel (scn5a) mRNA under the various conditions, quantitative real-time RT-PCR was used. […] PCR products were analyzed by relative standard curve methods β-Actin was used as a reference when making quantitative comparison.

[3] = tested on: cardiac sodium channel (scn5a) mRNA; assay: scn5a mRNA abundance by quantitative real-time RT-PCR in neonatal cardiomyocytes; format: cell-based, rat
Source text: as §1, §2

[4] = tested on: cardiac Na+ channel current; assay: Whole-cell patch-clamp Na+ current in H9c2 cells; format: cell-based, rat; settings: H9c2, 20 μM H2O2 for 48 h, voltage step to −10 mV
Protocol: Three hours prior to the start of the patch-clamp experiments, H9c2 cells were trypsinized and plated on treated plastic coverslips. H9c2 cells were treated with or without H2O2 as indicated. Glass pipettes were pulled on a Sutter Model P-97 horizontal puller to a resistance of 0.5 to 1.5 MΩ. The glass pipettes were filled with a solution of (in mM) CsCl 60, Cesium Aspartate 80, EGTA sodium 11, HEPES 10, Na2ATP 5 and pH 7.2 with CsOH. The bath solution consisted of (in mM) Na 30, […] chloride 100, CsCl 5, CaCl2 2, MgCl2 1.2, HEPES 10, Glucose 5 and pH 7.4 with NaOH. Once a seal was established, a small amount of suction was applied to obtain the whole cell configuration. From a holding potential of −100 mV, peak currents obtained at −10 mV were used for comparison. Cells were tested at 25° C. Data were sampled at 10 kHz and later filtered at 5 kHz for analysis. Currents were recorded and analyzed with an Axopatch 200B amplifier, Axon Digidata 1230A A/D converter and pClamp software (Molecular Devices Corporation, Sunnyvale, Calif.).

[5] = tested on: scn5a promoter; assay: scn5a promoter-reporter (dual luciferase) assay in H9c2 cells; format: cell-based, rat
Protocol: The scn5a promoter region has previously been defined (Shang, L. L. & Dudley, S. C., Jr. (2005) J. Biol. Chem. 280, 933-940). For these experiments, a new promoter construct that contained the NF-κB consensus binding site was used to test the effect of treatments on scn5a transcription. This construct, pGL3-APS3, consisted of a 937 bp fragment starting from exon 1C to +32 base pairs relative to the start codon located on exon 2 of mouse scn5a gene.
H9c2 cardiomyocytes were plated in each well of 24-well plates at a density of 2.5×10^4 cells in a final volume of 1 mL of culture medium, allowed to attach overnight, and expand to 70%-80% confluence. Transfection of 0.3 μg of the promoter-reporter construct and 0.013 μg of a plasmid containing the herpes simplex virus thymidine kinase (HSV-TK) promoter driving expression of a synthetic Renilla luciferase (phRL-TK; Promega, Madison, […].) was carried out with 0.9 μL of Fugene6 chemical transfection reagents (Roche, Indianapolis, Ind.) following the manufacturer's instructions. […] Light emission was quantified in a Veritas microplate luminometer using Veritas-version 1.4.0 software (Tuener Biosystems, Sunnyvale, Calif.). […] Four separate transfection sessions were analyzed, and at each session, transfections were performed in triplicate. Three dual luciferase readings were taken for each transfection experiment. […]

[6] = tested on: NF-κB binding to the scn5a promoter; assay: Electrophoretic mobility shift assay with H9c2 nuclear extracts; format: cell-based, rat; settings: for effect of NF-κB inhibitor on NF-κB binding to scn5a promoter probe: CAPE 10 μM, H9c2, H2O2
Source text: Approximately 5×10^6 cells were scraped for nuclear protein extraction by nuclear extract kit (Activemotif, Carlsbad, Calif.). A double-stranded oligonucleotide containing the consensus-binding sequence (bold) for […] ID NO. 657)) and NF-κB mutant sequence ([NT] ID NO. 658)) from scn5a promoter were used as probes to assay for binding activity of the nuclear extracts. Protein-DNA complexes were detected using biotin end-labeled double-stranded DNA probes prepared by annealing complementary oligonucleotides. Oligonucleotides were labeled in a reaction using terminal deoxynucleotide transferase and biotin-N4-CTP (Pierce, Rockford, Ill.) following the biotin 3' end DNA labeling kit manual. The binding reaction was performed using the LightShift kit (Pierce). […] Following electrophoresis, the DNA-protein complexes were transferred onto nylon membranes and detected using chemiluminescence. TNF-α activated H9c2 cell nuclear extract (5 μg) was used as positive control. The reaction products were separated on a 6% retardation gel.

[7] = tested on: NF-κB subunits p50 and p65 on the scn5a promoter; assay: Chromatin immunoprecipitation (ChIP) assay in H9c2 cells; format: cell-based, rat
Protocol: Formaldehyde cross-linking and chromatin immunoprecipitation was performed as described in manufactory's manual (ChIP-IT™ kit, Activemotif). Briefly, proteins were crosslinked with chromatin using 1% formaldehyde in H9c2 cells with or without treatment. The cells were subsequently sonicated in lysis buffer, and an aliquot of the lysate was used in a PCR reaction. The remaining lysate was cleared with protein G beads. One half of the cleared lysate was incubated with p50 or p65 antibody, while the other half was used as a negative control without the antibody. After reversing the cross-linking, the immuno-complex was digested with proteinase K, and the DNA was purified. DNA was analyzed by PCR with the PicoMax Polymerase (Stratagene, La Jolla, Calif.) and primers specific to the APS3 promoter region.

Which “cell death at 20 μM H2O2” value ([1]; 20 μM H2O2, 48 h) does the source give for OO [H2O2] here?
Its value is “no statistically significant increase in cell death”.

And the “H2O2 concentration at which cell death starts” value ([1]; 48 h)?
The value was ≥ 50 µM.

And the “reduction in Na+ channel mRNA” value ([2]; H9c2 cells, 20 μmol/L H2O2, 48 h)?
Its value is 46.9%.

And the “reduction in Na+ channel mRNA” value ([3]; isolated neonatal rat myocytes, 40 nM H2O2, 48 h)?
The value was 45.4%.

What about the “decrease in peak Na+ current” value [4] of the same molecule?
The value was 46%.

And the “change in promoter activity of construct with mutated NF-κB binding site” value ([5]; APS3-NF-κBm, H9c2, AngII or H2O2)?
The value was “no significant change in activity”.

What about the “depression of scn5a Na+ channel promoter activity” value ([5]; APS3 construct with intact NF-κB site, H9c2, 20 μM H2O2, 48 h) of the same molecule?
The value was 42.3%.

What about the “NF-κB binding activity to scn5a promoter probe” value ([6]; H9c2 nuclear extracts, 48 h AngII or H2O2) of the same molecule?
Its value is “increased”.

And the “NF-κB subunit binding on the cardiac Na+ channel promoter” value ([7]; H9c2, AngII or H2O2 treatment)?
Its value is “formation of the complete p50-p65 NF-κB heterodimer”.

With catalase as the molecule, how does the “effect of catalase on AngII-mediated downregulation of Na+ channel mRNA” value ([2]; H9c2, AngII 100 nM and PEG-catalase 250 U/mL, 48 h) read?
The value was “prevented”.

What about the “effect of catalase on AngII-mediated downregulation of Na+ channel mRNA” value ([3]; neonatal cardiomyocytes, AngII 2 nM and PEG-catalase 250 U/mL, 48 h) of the same molecule?
The value was “prevented”.

Which “effect of NF-κB inhibitor on NF-κB binding to scn5a promoter probe” value [6] does the source give for O=C(/C=C/c1ccc(O)c(O)c1)OCCc1ccccc1 [CAPE, caffeic acid phenethyl ester] here?
Its value is “prevented binding in response to H2O2”.

And the “effect of NF-κB inhibitor on NF-κB binding to scn5a promoter probe” value ([6]; listed as caffeic acid phenethyl ester)?
Its value is “blocked”.

And the “effect of NF-κB inhibitor on binding of p50 and p65 to the channel promoter” value ([7]; H9c2, CAPE)?
The value was “could prevent biding of both subunits”.
